# Data as given in US20060069132A1, “Azolecarboxamide herbicides” (priority 2004, published 2006).
# Key:
# rice [1] = assay: Test B flooded paddy test; assay type: in vivo, Oryza sativa; conditions: 1000 g ai/ha, scale 0 to 100 (0 no effect, 100 complete control)
# Procedure, shortened: (§1)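 Visual ratings, 0 (no effect) to 100 (complete control), made versus controls after 13–15 d greenhouse. Paddy plants treated at 2-leaf stage; postemergence plants at 1- to 4-leaf stage, 2–18 cm tall.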
# [2] = system: small flower umbrella sedge; assay: Test B flooded paddy test; assay type: in vivo, Cyperus difformis; conditions: 1000 g ai/ha, scale 0 to 100 (0 no effect, 100 complete control)
# Procedure, shortened: as §1
# giant foxtail = assay: Test B pre-/postemergence herbicide test; assay type: in vivo, Setaria faberi; conditions: for Foxtail, Giant plant response rating: postemergence
# Procedure, shortened: (§2)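 Seeds were planted and treated preemergence with compounds formulated in a non-phytotoxic solvent mixture containing surfactant, while plants at the 1- to 4-leaf stage (2 to 18 cm) received postemergence sprays. Flooded paddy plants were grown to the 2-leaf stage. After 13 to 15 days in a greenhouse, injury was visually rated 0–100 against untreated controls.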
# wild oat = assay: Test B postemergence herbicide test; assay type: in vivo, Avena fatua; conditions: postemergence
# Procedure, shortened: (§3)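 Formulated test chemicals went onto postemergence plants measuring 2 to 18 cm, at one to four leaves. For the paddy assay, species had reached two leaves. Scoring took place 13–15 days later by eye, relative to untreated plants, using 0 for no effect up to 100 for full control.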
# corn = assay: Test B pre-/postemergence herbicide test; assay type: in vivo, Zea mays; conditions: for Corn plant response rating: postemergence
# Procedure, shortened: as §2
# barnyardgrass [3] = assay: Test B pre-/postemergence herbicide test; assay type: in vivo, Echinochloa crus-galli; conditions: for Barnyardgrass plant response rating: postemergence
# Procedure, shortened: (§4)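 Visual rating, 0 (no effect) to 100 (complete control), versus untreated controls after 13–15 d in greenhouse. Pre- and postemergence applications (postemergence plants 2–18 cm, 1–4 leaves); flooded paddy arm at 2-leaf stage. Compounds in non-phytotoxic solvent plus surfactant.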
# rice [4] = assay: Test B pre-/postemergence herbicide test; assay type: in vivo, Oryza sativa; conditions: preemergence
# Procedure, shortened: as §2
# rice [5] = assay: Test C flooded paddy test; assay type: in vivo, Oryza sativa; conditions: for Plant response rating, Rice: visual rating after 12 to 14 days
# Procedure, shortened: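 Postemergence sprays applied to plants 2 to 18 cm tall (1- to 4-leaf stage); paddy species grown to 2-leaf stage under flooding. After 12 to 14 days in greenhouse, visual rating versus untreated controls on 0–100 scale (0 no effect, 100 complete control).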
# lambsquarters = assay: Test B pre-/postemergence herbicide test; assay type: in vivo, Chenopodium album; conditions: for Plant response rating, Lambsquarters: preemergence; for Lambsquarters plant response rating: postemergence
# Procedure, shortened: as §2
# barnyardgrass [6] = assay: Test B flooded paddy test; assay type: in vivo, Echinochloa crus-galli; conditions: 1000 g ai/ha, scale 0 to 100 (0 no effect, 100 complete control)
# Procedure, shortened: as §1
# cocklebur = assay: Test B pre-/postemergence herbicide test; assay type: in vivo, Xanthium strumarium; conditions: for Cocklebur plant response rating: postemergence
# Procedure, shortened: as §4
# barnyardgrass [7] = assay: Test C flooded paddy test; assay type: in vivo, Echinochloa crus-galli; conditions: for Plant response rating, Barnyardgrass: visual rating after 12 to 14 days
# Procedure, shortened: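 Greenhouse test with a 12–14 day hold after application and visual comparison with controls. Emerged plants were 1- to 4-leaf stage (2–18 cm) when sprayed postemergence, and the paddy barnyardgrass was at 2 leaves under flooded conditions. 100 = complete control.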
# [8] = system: smallflower umbrella sedge; assay: Test C flooded paddy test; assay type: in vivo, Cyperus difformis; conditions: for Plant response rating, Sedge, Umbrella: visual rating after 12 to 14 days
# ducksalad [9] = assay: Test C flooded paddy test; assay type: in vivo, Heteranthera limosa; conditions: for Plant response rating, Ducksalad: visual rating after 12 to 14 days
# ducksalad [10] = assay: Test B flooded paddy test; assay type: in vivo, Heteranthera limosa; conditions: 1000 g ai/ha, scale 0 to 100 (0 no effect, 100 complete control)
# Procedure, shortened: as §1
# large crabgrass = assay: Test B pre-/postemergence herbicide test; assay type: in vivo, Digitaria sanguinalis; conditions: for Crabgrass, Large plant response rating: postemergence
# Procedure, shortened: as §2
# morningglory = assay: Test B pre-/postemergence herbicide test; assay type: in vivo, Ipomoea coccinea; conditions: for Morningglory plant response rating: postemergence
# Procedure, shortened: as §4
# pigweed = assay: Test B pre-/postemergence herbicide test; assay type: in vivo, Amaranthus retroflexus; conditions: for Plant response rating, Pigweed: preemergence; for Pigweed plant response rating: postemergence
# Procedure, shortened: as §2
# Surinam grass = assay: Test B pre-/postemergence herbicide test; assay type: in vivo, Urochloa decumbens; conditions: for Surinam Grass plant response rating: postemergence
# Procedure, shortened: as §2
# blackgrass = assay: Test B postemergence herbicide test; assay type: in vivo, Alopecurus myosuroides; conditions: postemergence
# Procedure, shortened: as §1
# velvetleaf = assay: Test B pre-/postemergence herbicide test; assay type: in vivo, Abutilon theophrasti; conditions: for Velvetleaf plant response rating: postemergence
# Procedure, shortened: as §2
# wheat = assay: Test B postemergence herbicide test; assay type: in vivo, Triticum aestivum; parameters: key to Wheat plant response rating: 0 = no effect, 100 = complete control; conditions: postemergence
# Procedure, shortened: as §3
# [11] = 125 g ai/ha, 0 = no effect, 100 = complete control, preemergence
# [12] = 500 g ai/ha, visual rating, 0 = no effect, 100 = complete control, preemergence
# [13] = 125 g ai/ha, visual rating, scale 0 (no effect) to 100 (complete control)
# [14] = 500 g ai/ha, scale 0 to 100, 0 is no effect, 100 is complete control
# [15] = 500 g ai/ha, visual rating, scale 0 (no effect) to 100 (complete control)
# [16] = 500 g ai/ha, visual rating, 0 = no effect, 100 = complete control
# [17] = 125 g ai/ha, scale 0 to 100 (0 no effect, 100 complete control)
# [18] = 250 g ai/ha, scale of 0 to 100, 0 is no effect, 100 is complete control
# [19] = 500 g ai/ha, scale 0 to 100 (0 no effect, 100 complete control)
# [20] = 62 g ai/ha, scale 0 to 100 (0 no effect, 100 complete control)
# [21] = preemergence, 125 g ai/ha, 0 to 100 scale, 0 is no effect, 100 is complete control
# [22] = 125 g ai/ha, 0 to 100 scale, 0 is no effect, 100 is complete control
# [23] = 125 g ai/ha, scale of 0 to 100, 0 is no effect, 100 is complete control
# [24] = 250 g ai/ha, scale 0 to 100 (0 no effect, 100 complete control)
structure (smiles),measurement,setting,value
CCn1nc(C(C)(C)C)cc1C(=O)Nc1cncc(C(=O)N2CC=CC2)c1 [Compound 260],Rice plant response rating,rice [1],70
same,"Sedge, Umbrella plant response rating",[2],70
same,"Foxtail, Giant plant response rating (0 to 100 scale)",giant foxtail; [11],0
same,"Plant response rating, Foxtail, Giant",giant foxtail; [12],30
same,"Foxtail, Giant plant response rating",giant foxtail; [13],0
same,"Foxtail, Giant plant response rating",giant foxtail; [14],0
same,"Oat, Wild plant response rating",wild oat; [13],20
same,"Oat, Wild plant response rating",wild oat; [14],30
same,Corn plant response rating (0 to 100 scale),corn; [11],0
same,"Plant response rating, Corn",corn; [12],0
same,Corn plant response rating,corn; [13],0
same,Corn plant response rating,corn; [14],0
same,Barnyardgrass plant response rating (0 to 100 scale),barnyardgrass [3]; [11],0
same,"Plant response rating, Barnyardgrass",barnyardgrass [3]; [12],70
same,Barnyardgrass plant response rating,barnyardgrass [3]; [13],0
same,Barnyardgrass plant response rating,barnyardgrass [3]; [15],0
same,Rice plant response rating (0 to 100 scale),"rice [4]; 125 g ai/ha, 0 = no effect, 100 = complete control",0
same,"Plant response rating, Rice",rice [4]; [16],30
same,Rice plant response rating,"rice [5]; 62 g ai/ha, scale 0 to 100",0
same,Rice plant response rating,rice [5]; [17],0
same,Rice plant response rating,rice [5]; [18],0
same,"Plant response rating, Rice",rice [5]; [19],15
same,"Plant response rating, Lambsquarters",lambsquarters; [16],100
same,Lambsquarters plant response rating,lambsquarters; [13],10
same,Lambsquarters plant response rating,lambsquarters; [14],30
same,Barnyardgrass plant response rating,barnyardgrass [6],60
same,Cocklebur plant response rating (0 to 100 scale),cocklebur; [11],0
same,"Plant response rating, Cocklebur",cocklebur; [12],0
same,Cocklebur plant response rating,cocklebur; [13],10
same,Cocklebur plant response rating,cocklebur; [15],20
same,Barnyardgrass plant response rating,barnyardgrass [7]; [20],0
same,Barnyardgrass plant response rating,barnyardgrass [7]; [17],0
same,Barnyardgrass plant response rating,barnyardgrass [7]; [18],20
same,"Plant response rating, Barnyardgrass",barnyardgrass [7]; [19],35
same,"Sedge, Umbrella plant response rating","[8]; 62 g ai/ha, scale 0 to 100",0
same,"Sedge, Umbrella plant response rating",[8]; [17],40
same,"Sedge, Umbrella plant response rating",[8]; [18],65
same,"Plant response rating, Sedge, Umbrella",[8]; [19],65
same,Ducksalad plant response rating,"ducksalad [9]; 62 g ai/ha, scale 0 to 100",0
same,Ducksalad plant response rating,ducksalad [9]; [17],70
same,Ducksalad plant response rating,ducksalad [9]; [18],75
same,"Plant response rating, Ducksalad",ducksalad [9]; [19],85
same,Ducksalad plant response rating,ducksalad [10],90
same,"Crabgrass, Large plant response rating (0 to 100 scale)",large crabgrass; [11],0
same,"Crabgrass, Large plant response rating",large crabgrass; [13],0
same,"Crabgrass, Large plant response rating",large crabgrass; [14],10
same,Morningglory plant response rating (0 to 100 scale),morningglory; [11],0
same,"Plant response rating, Morningglory",morningglory; [12],0
same,Morningglory plant response rating,morningglory; [13],0
same,Morningglory plant response rating,morningglory; [14],10
same,"Plant response rating, Pigweed",pigweed; [16],100
same,Pigweed plant response rating,pigweed; [13],20
same,Pigweed plant response rating,pigweed; [14],70
same,Surinam Grass plant response rating (0 to 100 scale),Surinam grass; [11],0
same,"Plant response rating, Surinam Grass",Surinam grass; [12],10
same,Surinam Grass plant response rating,Surinam grass; [13],0
same,Surinam Grass plant response rating,Surinam grass; [14],20
same,Blackgrass plant response rating,blackgrass; [13],10
same,Blackgrass plant response rating,blackgrass; [15],10
same,Velvetleaf plant response rating (0 to 100 scale),velvetleaf; [11],0
same,"Plant response rating, Velvetleaf",velvetleaf; [12],10
same,Velvetleaf plant response rating,velvetleaf; [13],0
same,Velvetleaf plant response rating,velvetleaf; [14],20
same,Wheat plant response rating,wheat; [13],20
same,Wheat plant response rating,wheat; [14],40
CCn1nc(C(C)(C)C)cc1C(=O)Nc1cccc(C(=O)N(C)C)c1 [Compound 49],Rice plant response rating,"rice [1]; visual rating, 13 to 15 days",30
same,"Sedge, Umbrella plant response rating","[2]; visual rating, 13 to 15 days",80
same,"Foxtail, Giant plant response rating",giant foxtail; [13],10
same,"Foxtail, Giant plant response rating","giant foxtail; 31 g ai/ha, scale 0 to 100",0
same,"Plant response rating, Foxtail, Giant",giant foxtail; [21],0
same,"Oat, Wild plant response rating",wild oat; [13],10
same,"Oat, Wild plant response rating","wild oat; 31 g ai/ha, scale 0 to 100",0
same,Corn plant response rating,corn; [13],20
same,Corn plant response rating,"corn; 31 g ai/ha, scale 0 to 100",10
same,"Plant response rating, Corn",corn; [21],0
same,Barnyardgrass plant response rating,barnyardgrass [3]; [13],30
same,Barnyardgrass plant response rating,"barnyardgrass [3]; 31 g ai/ha, scale 0 to 100",10
same,"Plant response rating, Barnyardgrass",barnyardgrass [3]; [21],30
same,"Plant response rating, Rice",rice [4]; [22],40
same,Rice plant response rating,rice [5]; [20],15
same,Rice plant response rating,rice [5]; [23],25
same,"Plant response rating, Rice",rice [5]; [24],70
same,"Plant response rating, Rice",rice [5]; [19],90
same,Lambsquarters plant response rating,lambsquarters; [13],50
same,Lambsquarters plant response rating,"lambsquarters; 31 g ai/ha, scale 0 to 100",20
same,"Plant response rating, Lambsquarters",lambsquarters; [22],70
same,Barnyardgrass plant response rating,"barnyardgrass [6]; visual rating, 13 to 15 days",70
same,Cocklebur plant response rating,cocklebur; [13],20
same,Cocklebur plant response rating,"cocklebur; 31 g ai/ha, scale 0 to 100",10
same,"Plant response rating, Cocklebur",cocklebur; [21],0
same,Barnyardgrass plant response rating,barnyardgrass [7]; [20],45
same,Barnyardgrass plant response rating,barnyardgrass [7]; [23],60
same,"Plant response rating, Barnyardgrass",barnyardgrass [7]; [24],70
same,"Plant response rating, Barnyardgrass",barnyardgrass [7]; [19],80
same,"Sedge, Umbrella plant response rating",[8]; [20],45
same,"Sedge, Umbrella plant response rating",[8]; [23],45
same,"Plant response rating, Sedge, Umbrella",[8]; [24],80
same,"Plant response rating, Sedge, Umbrella",[8]; [19],80
same,Ducksalad plant response rating,ducksalad [9]; [20],0
same,Ducksalad plant response rating,ducksalad [9]; [23],50
same,"Plant response rating, Ducksalad",ducksalad [9]; [24],80
same,"Plant response rating, Ducksalad",ducksalad [9]; [19],80
same,Ducksalad plant response rating,"ducksalad [10]; visual rating, 13 to 15 days",80
same,"Crabgrass, Large plant response rating",large crabgrass; [13],10
same,"Crabgrass, Large plant response rating","large crabgrass; 31 g ai/ha, scale 0 to 100",10
same,"Plant response rating, Crabgrass, Large",large crabgrass; [21],20
same,Morningglory plant response rating,morningglory; [13],0
same,Morningglory plant response rating,"morningglory; 31 g ai/ha, scale 0 to 100",0
same,"Plant response rating, Morningglory",morningglory; [21],0
same,Pigweed plant response rating,pigweed; [13],30
same,Pigweed plant response rating,"pigweed; 31 g ai/ha, scale 0 to 100",10
same,"Plant response rating, Pigweed",pigweed; [22],90
same,Surinam Grass plant response rating,Surinam grass; [13],10
same,Surinam Grass plant response rating,"Surinam grass; 31 g ai/ha, scale 0 to 100",10
same,"Plant response rating, Surinam Grass",Surinam grass; [21],10
same,Blackgrass plant response rating,blackgrass; [13],0
same,Blackgrass plant response rating,"blackgrass; 31 g ai/ha, scale 0 to 100",0
same,Velvetleaf plant response rating,velvetleaf; [13],30
same,Velvetleaf plant response rating,"velvetleaf; 31 g ai/ha, scale 0 to 100",10
same,"Plant response rating, Velvetleaf",velvetleaf; [21],0
same,Wheat plant response rating,wheat; [13],0
same,Wheat plant response rating,"wheat; 31 g ai/ha, scale 0 to 100",0
